Active and inactive are the calls of the source. No cut-off for these calls is given here. Bounds are passed on as bounds.

One assay deals with Orobanche cernua var. cumana. Kind of assay: Induction of Orobanche cernua var. cumana seed germination at 100 uM after 6 days. The assay is classed as functional.
Turning to `CC1=C[C@H](O/C=C2/C(=O)O[C@@H]3c4ccccc4C[C@H]23)OC1=O`, the Activity was 50%.

The subject of another assay is Orobanche minor. The assay can be described thus: Induction of Orobanche minor seed germination at 0.001 uM after 6 days. The assay is classed as functional.
Take `CC1=C[C@H](O/C=C2/C(=O)O[C@@H]3C4=C(C[C@H]23)[C@@H](O)CCC4(C)C)OC1=O` [STRIGOL]: the Activity is >40%. Compound `COC(=O)/C(=C/O[C@H]1C=C(C)C(=O)O1)N1C(=O)c2ccccc2C1=O` [NIJMEGEN-1] gave an Activity of 0%.

As to `CC1=CC(O/C=C2/C(=O)OC3C2C=C2CCCC(C)(C)C23O)OC1=O` (stereo unspecified) [ALECTROL], the Activity is recorded as >40%. Regarding `CC1=C[C@H](O/C=C2/C(=O)O[C@@H]3C4=C(CCCC4(C)C)[C@@H](O)[C@H]23)OC1=O` [OROBANCHOL], the Activity is listed as >40%.

In another assay the test system is Orobanche cernua var. cumana. Kind of assay: Induction of Orobanche cernua var. cumana seed germination at 10 uM after 6 days. The assay is classed as functional.
Take `C=C1C2[C@H]3OC(=O)C(=C)[C@@H]3CC[C@@]2(C)[C@H](O)C[C@H]1O` (stereo partly specified): the result was inactive. For `C=C1[C@@H]2[C@H]3OC(=O)C(=C)[C@@H]3CCC(=C)[C@@H]2C[C@H]1O` [ISOZALUZANIN C], the Activity is listed as >40%. Still for that read-out and setting: the same measure for `CC1=C[C@@H](O/C=C2/C(=O)O[C@H]3C=CC[C@@H]23)OC1=O`: 0%; for `C=C1C(=O)O[C@@H]2/C=C(\C)CC[C@H]3O[C@]3(C)CC[C@@H]12` [1,10-EPOXYCOSTUNOLIDE]: >40%; for `C/C1=C\CC[C@@]2(C)O[C@@H]2[C@H]2OC(=O)[C@](C)(O)[C@@H]2CC1`: 0%. Turning to `C=C1C(=O)O[C@@H]2/C=C(\C)CC/C=C(/CO)CC[C@@H]12`, the Activity is on record as 0%. Still for that read-out and setting: with `C=C1CC[C@@H](O)[C@]2(C)CC[C@H]3C(=C)C(=O)O[C@@H]3[C@@H]12` [REYNOSIN] the figure was 0%. As for `C=C1CC[C@H]2[C@H](CO)C(=O)O[C@@H]2C2C(=C)[C@H](O)CC12` (stereo partly specified), the Activity was >40%. For `C=C1C(=O)O[C@H]2[C@H]1CCC(=C)[C@]1(O)C[C@@H](O)C(=C)[C@]21O`, the Activity was determined as 0%.

In turn, `CC1=C[C@H](O/C=C2/C(=O)O[C@@H]3c4ccccc4C[C@H]23)OC1=O` showed an Activity of 65%.

On to `C=C1C(=O)O[C@@H]2C3O[C@]3(C)CC/C=C(\C)CC[C@@H]12` (stereo partly specified), for which the Activity is reported as >40%. Take `C=C1C(=O)O[C@H]2[C@H]1CC[C@@]1(C)[C@H](O)CC=C(C)[C@]21O`: the result was inactive. As to `C=C1CC[C@H]2[C@H](CO)C(=O)O[C@@H]2C2C(=C)CCC12` (stereo partly specified), the Activity is reported as >40%.

The next assay concerns Orobanche crenata. Kind of assay: Induction of Orobanche crenata seed germination at 100 uM after 6 days. The assay is classed as functional.
Take `CC1=C[C@H](O/C=C2/C(=O)O[C@@H]3c4ccccc4C[C@H]23)OC1=O`: the Activity turned out to be 80%.

For the next assay, the system named is Orobanche crenata. Kind of assay: Induction of Orobanche crenata seed germination after 6 days. The assay is classed as functional.
Regarding `CC1=C[C@H](O/C=C2/C(=O)O[C@@H]3C4=C(CCC[C@@H]4C)C[C@H]23)OC1=O` [SORGOLACTONE], the Activity is recorded as >40%.

The next assay has as its system Phelipanche ramosa. Kind of assay: Induction of Orobanche ramosa seed germination at 100 uM after 6 days. The assay is classed as functional.
`CC1=C[C@H](O/C=C2/C(=O)O[C@@H]3c4ccccc4C[C@H]23)OC1=O` returned an Activity of 65%.
